Results: patent US11618758B2, “Bicyclic and tricyclic pyrimidine tyrosine kinase inhibitors with antitubulin activity and methods of treating a patient” (Duquesne University of the Holy Spirit, priority 2011, dated 2023)

How the values were obtained:
[1] = molecular target: vascular endothelial growth factor receptor (VEGFR2, Flk-1) (Homo sapiens, UniProt P35968); test: Kinase inhibition VEGFR2; assay type: biochemical; details: comparable to sunitinib
[2] = molecular target: platelet derived growth factor receptor-β (PDGFR-β) (Homo sapiens, UniProt P09619); test: Kinase inhibition PDGFRβ; assay type: biochemical; details: comparable to sunitinib
Sequence of platelet derived growth factor receptor-β (PDGFR-β) (P09619 33-1106, species assumed): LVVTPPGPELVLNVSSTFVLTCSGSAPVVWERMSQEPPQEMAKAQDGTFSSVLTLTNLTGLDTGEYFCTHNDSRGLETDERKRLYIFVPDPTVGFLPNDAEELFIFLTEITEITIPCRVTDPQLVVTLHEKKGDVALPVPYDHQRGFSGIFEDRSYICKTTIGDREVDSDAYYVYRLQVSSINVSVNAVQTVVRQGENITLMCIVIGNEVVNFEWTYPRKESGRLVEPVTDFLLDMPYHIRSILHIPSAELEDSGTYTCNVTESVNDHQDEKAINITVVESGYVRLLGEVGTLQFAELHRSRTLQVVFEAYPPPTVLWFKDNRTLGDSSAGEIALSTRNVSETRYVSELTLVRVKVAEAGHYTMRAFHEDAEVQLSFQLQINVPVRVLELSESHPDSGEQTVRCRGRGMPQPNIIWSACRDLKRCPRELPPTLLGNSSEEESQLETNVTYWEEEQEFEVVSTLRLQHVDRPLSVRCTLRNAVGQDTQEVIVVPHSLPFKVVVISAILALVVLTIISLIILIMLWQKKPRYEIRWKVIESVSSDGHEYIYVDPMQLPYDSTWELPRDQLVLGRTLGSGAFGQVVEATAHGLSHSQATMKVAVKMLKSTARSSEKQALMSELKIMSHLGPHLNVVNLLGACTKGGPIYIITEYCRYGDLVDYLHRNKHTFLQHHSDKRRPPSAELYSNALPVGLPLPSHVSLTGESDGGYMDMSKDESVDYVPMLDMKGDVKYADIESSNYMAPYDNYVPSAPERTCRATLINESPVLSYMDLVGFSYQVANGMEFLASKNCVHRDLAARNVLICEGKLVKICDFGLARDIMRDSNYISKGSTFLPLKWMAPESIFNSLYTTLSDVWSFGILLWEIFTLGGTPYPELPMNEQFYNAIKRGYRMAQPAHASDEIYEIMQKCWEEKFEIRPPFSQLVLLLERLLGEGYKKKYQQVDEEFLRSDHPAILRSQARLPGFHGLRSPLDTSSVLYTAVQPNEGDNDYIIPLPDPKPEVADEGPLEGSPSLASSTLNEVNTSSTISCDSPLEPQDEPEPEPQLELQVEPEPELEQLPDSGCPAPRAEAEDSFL

[3] = molecular target: T1, epidermal growth factor receptor (EGFR) (Homo sapiens, UniProt P00533); test: Kinase inhibition EGFR; assay type: biochemical; details: comparable to sunitinib
T1 sequence (P00533 25-1210, species assumed): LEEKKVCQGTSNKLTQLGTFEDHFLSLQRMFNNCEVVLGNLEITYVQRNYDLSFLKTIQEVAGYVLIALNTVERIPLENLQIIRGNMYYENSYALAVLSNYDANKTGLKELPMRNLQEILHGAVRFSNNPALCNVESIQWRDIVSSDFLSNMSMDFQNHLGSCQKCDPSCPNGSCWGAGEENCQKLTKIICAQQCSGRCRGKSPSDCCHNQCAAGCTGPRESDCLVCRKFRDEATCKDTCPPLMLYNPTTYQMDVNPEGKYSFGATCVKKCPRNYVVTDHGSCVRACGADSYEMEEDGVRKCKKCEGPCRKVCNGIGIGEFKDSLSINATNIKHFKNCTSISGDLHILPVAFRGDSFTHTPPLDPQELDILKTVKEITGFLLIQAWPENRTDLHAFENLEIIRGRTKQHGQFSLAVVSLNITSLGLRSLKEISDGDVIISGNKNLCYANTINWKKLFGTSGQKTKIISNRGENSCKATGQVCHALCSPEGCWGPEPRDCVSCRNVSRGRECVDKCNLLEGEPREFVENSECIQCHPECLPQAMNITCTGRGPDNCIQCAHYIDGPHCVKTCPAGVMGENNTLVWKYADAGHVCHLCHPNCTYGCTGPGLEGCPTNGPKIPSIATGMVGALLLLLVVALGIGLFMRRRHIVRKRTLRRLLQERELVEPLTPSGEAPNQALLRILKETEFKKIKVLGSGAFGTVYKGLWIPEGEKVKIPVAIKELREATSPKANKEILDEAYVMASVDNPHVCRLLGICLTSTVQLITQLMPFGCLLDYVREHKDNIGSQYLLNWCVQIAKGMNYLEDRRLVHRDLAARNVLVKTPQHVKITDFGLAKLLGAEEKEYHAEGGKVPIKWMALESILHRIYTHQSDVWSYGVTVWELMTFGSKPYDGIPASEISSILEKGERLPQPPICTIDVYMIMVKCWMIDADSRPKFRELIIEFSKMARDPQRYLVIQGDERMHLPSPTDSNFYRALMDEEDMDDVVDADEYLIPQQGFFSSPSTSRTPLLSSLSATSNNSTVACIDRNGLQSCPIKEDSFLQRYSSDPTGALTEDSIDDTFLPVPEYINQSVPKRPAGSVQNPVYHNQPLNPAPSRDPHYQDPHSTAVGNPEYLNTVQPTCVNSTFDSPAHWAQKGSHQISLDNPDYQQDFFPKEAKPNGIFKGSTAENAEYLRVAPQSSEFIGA

[4] = molecular target: T1, epidermal growth factor receptor (EGFR); details: does not inhibit EGFR even at these concentrations; cited from earlier work

Sequence of vascular endothelial growth factor receptor (VEGFR2, Flk-1) (P35968 20-1356): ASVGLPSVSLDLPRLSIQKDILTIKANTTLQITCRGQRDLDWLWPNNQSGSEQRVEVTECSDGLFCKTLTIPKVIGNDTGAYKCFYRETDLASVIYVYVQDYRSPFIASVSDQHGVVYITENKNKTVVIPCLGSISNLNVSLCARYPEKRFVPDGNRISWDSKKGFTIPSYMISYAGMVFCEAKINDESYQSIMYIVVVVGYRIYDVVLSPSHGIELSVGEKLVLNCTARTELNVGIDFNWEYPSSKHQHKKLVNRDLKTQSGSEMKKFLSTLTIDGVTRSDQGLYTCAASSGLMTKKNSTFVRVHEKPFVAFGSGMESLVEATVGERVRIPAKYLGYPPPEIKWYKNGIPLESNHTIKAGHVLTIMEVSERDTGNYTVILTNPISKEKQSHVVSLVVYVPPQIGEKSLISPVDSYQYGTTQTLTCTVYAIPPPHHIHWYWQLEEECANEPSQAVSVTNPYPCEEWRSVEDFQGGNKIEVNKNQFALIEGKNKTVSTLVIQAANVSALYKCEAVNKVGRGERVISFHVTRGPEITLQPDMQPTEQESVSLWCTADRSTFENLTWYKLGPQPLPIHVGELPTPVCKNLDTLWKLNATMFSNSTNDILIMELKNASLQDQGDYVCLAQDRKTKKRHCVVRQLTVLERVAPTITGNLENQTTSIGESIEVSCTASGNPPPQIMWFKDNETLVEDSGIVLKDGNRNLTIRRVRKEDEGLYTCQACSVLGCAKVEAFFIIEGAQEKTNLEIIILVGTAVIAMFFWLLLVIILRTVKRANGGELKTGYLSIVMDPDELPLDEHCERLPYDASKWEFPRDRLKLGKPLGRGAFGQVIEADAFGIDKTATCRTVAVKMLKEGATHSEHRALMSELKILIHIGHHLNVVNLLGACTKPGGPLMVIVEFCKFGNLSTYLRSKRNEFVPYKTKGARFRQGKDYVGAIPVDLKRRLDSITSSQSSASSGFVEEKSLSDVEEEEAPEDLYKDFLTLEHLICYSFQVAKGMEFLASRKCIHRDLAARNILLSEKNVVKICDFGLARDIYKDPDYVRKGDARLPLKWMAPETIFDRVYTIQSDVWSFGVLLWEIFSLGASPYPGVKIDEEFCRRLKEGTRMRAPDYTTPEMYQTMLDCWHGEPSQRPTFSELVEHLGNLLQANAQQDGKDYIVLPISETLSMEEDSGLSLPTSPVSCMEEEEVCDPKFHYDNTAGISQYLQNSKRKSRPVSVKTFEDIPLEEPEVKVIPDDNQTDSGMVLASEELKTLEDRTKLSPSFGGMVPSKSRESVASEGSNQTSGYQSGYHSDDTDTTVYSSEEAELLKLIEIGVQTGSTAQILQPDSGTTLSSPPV

SMILES	Flk-1 (VEGR2) kinase inhibition (in words, FIG. 16) [1]	PDGFR kinase inhibition (in words, FIG. 16) [2]	EGFR kinase inhibition (in words, FIG. 16) [3]	concentration at which EGFR is not inhibited [4]
COc1ccc2c(c1)CCCN2c1nc(C)nc2c1[nH]c1ccccc12 [Composition 106]	potent inhibitors	potent inhibitors	potent inhibitors	–
CN(C)c1ccc(/C=C2\C(=O)Nc3ccccc32)cc1 [DMBI]	–	–	–	greater than 100 μM
